Results: patent publication US6906205B2, “Spiro and dispiro 1,2,4-trioxolane antimalarials” (Medicines for Malaria Venture MMV, priority 2002, dated 2005)
Converted amounts (≈) assume the structure as drawn. Read-outs that look alike come from different tables or passages of the source.

Tests used:
[1] = tested on: P. falciparum K1 strain (Thailand resistant to chloroquine); assay: semiautomated microdilution assay, [3H]-hypoxanthine incorporation, K1 strain; assay type: cell-based, Plasmodium falciparum; settings: for IC50: Plasmodium falciparum, read-out: IC50 (ng/ml) K1
Procedure: (§1) Various OZ compounds were tested by the semiautomated microdilution assay against intraerythrocytic forms of Plasmodium falciparum derived from asynchronous stock cultures.
(§2) Fifty percent inhibitory concentration (IC50) were estimated by Logit regression analysis.

[2] = tested on: P. falciparum NF54 strain (sensitive to standard antimalarials); assay: semiautomated microdilution assay, [3H]-hypoxanthine incorporation, NF54 strain; assay type: cell-based, Plasmodium falciparum; settings: for IC50: Plasmodium falciparum, read-out: IC50 (ng/ml) NF54
Procedure: as §1, §2

[3] = tested on: ANKA strain of P. berghei; assay: single dose STI in vivo screen in infected mice; design: species or system Plasmodium berghei; settings: for Activity (%) po / Activity (%) sc / Activity (%) SSVpo / Activity (%) 10 mg/kg SSV po / Activity (%) 3 mg/kg SSV po: percent reduction in parasitemia day 3 post-infection; for Activity (%) po / Survival (days) po: single 10 mg/kg po in 3% ethanol and 7% Tween 80; for Activity (%) po / Activity (%) sc / Activity (%) SSVpo: mice; for Activity (%) sc / Survival (days) sc: single 10 mg/kg sc in 3% ethanol and 7% Tween 80; for Survival (days) po / Survival (days) sc / Survival (days) SSVpo: untreated control 5.6 ± 0.3; for Activity (%) SSVpo: single po dose in standard suspending vehicle (SSV); for Survival (days) SSVpo: single po dose in SSV; for Activity (%) 10 mg/kg SSV po / Survival (days) 10 mg/kg SSV po: single 10 mg/kg po in SSV
Procedure: In the single dose STI in vivo screen, Moro SPF or NMRI mice infected with the ANKA strain of P. berghei (groups of 3-5 mice) were treated on day one post-infection with trioxolanes dissolved or suspended in 3% ethanol and 7% Tween 80. […] SSV consists of 0.5% w/v CMC, 0.5% v/v benzyl alcohol, 0.4% v/v Tween 80, and 0.9% w/v sodium chloride in water. Antimalarial activity was measured by percent reduction in parasitemia on day three post-infection and survival times compared to an untreated control group. Survival to day 30 post-infection is considered to be a cure. […] Other factors influencing antimalarial activity include the stability of carbon radicals formed by β-scission subsequent to the initial electron transfer to the peroxide bond and the influence of steric effects remote from the peroxide bond on the interactions between carbon radicals and potential drug targets.

Structure (SMILES) | IC50 (ng/ml) K1 ([1]; K1 strain, 72 h incubation) | IC50 (ng/ml) NF54 ([2]; NF54 strain, 72 h incubation) | Activity (%) po [3] | Activity (%) sc [3] | Survival (days) po [3] | Survival (days) sc [3] | also measured
C1CCC2(CC1)OOC1(CCCCC1)O2 [OZ01] | >100/>100 ng/ml | >100/>100 ng/ml | 0/NA/0^1% | 0/NA/0^1% | 5.3/NA/5.3^1 days | 5.3/NA/5.3^1 days | 
O=C1CCC2(CC1)OOC1(CCCCC1)O2 [OZ02] | > 100 ng/mL | 94 ng/mL (≈ 415 nM) | 0/NA/0^1% | 0/NA/0^1% | 5.0/NA/5.0^1 days | 5.0/NA/5.0^1 days | 
FC1CCCCC12OOC1(CCCCC1)O2 (centres unmarked) [OZ06] | 18 ng/mL (≈ 78.2 nM) | 22 ng/mL (≈ 95.5 nM) |  |  | 1.0/NA/1.0^1 days | 1.0/NA/1.0^1 days | 
CCOC(=O)CCC1CCCCC12OOC1(CCCCC1)O2 (centres unmarked) [OZ07] | 66 ng/mL (≈ 211 nM) | 49 ng/mL (≈ 157 nM) | 0/NA/0^1% | 0/NA/0^1% | 6.0 days | 5.7 days | 
C1CCC2(CC1)OOC1(CCC3(CC1)OOC1(CCCCC1)O3)O2 (centres unmarked) [OZ09] | 32 ng/mL (≈ 94 nM) | 39 ng/mL (≈ 115 nM) | 0% | 81% | 5.0 days | 6.3 days | 
O=C1CC2CC(C1)CC1(C2)OOC2(O1)C1CC3CC(C1)CC2C3 (centres unmarked) [OZ13] | 0.40 ng/mL (≈ 1.26 nM) | 0.50 ng/mL (≈ 1.57 nM) | 56% | 99.7% | 6.7 days | 9.7 days | 
O=C1CCC2(CCO1)OOC1(O2)C2CC3CC(C2)CC1C3 (centres unmarked) [OZ17] |  |  | 0% | 18% | 5.3 days | 6.3 days | IC50 ([1]; K1 strain, 72 h incubation): 85 ng/mL (≈ 289 nM); IC50 ([2]; NF54 strain, 72 h incubation): > 100 ng/mL
OC1CCC2(CC1)OOC1(O2)C2CC3CC(C2)CC1C3 (centres unmarked) [OZ32] |  |  | 79% | 91% | 6.7 days | 8.7 days | IC50 ([1]; K1, 72 h): 0.25 ng/mL (≈ 0.892 nM); IC50 ([2]; NF54, 72 h): 0.51 ng/mL (≈ 1.82 nM); Activity (%) SSVpo [3]: 93%; Survival (days) SSVpo [3]: 7.0 days
c1ccc(C2(c3ccccc3)CCC3(CC2)OOC2(O3)C3CC4CC(C3)CC2C4)cc1 (centres unmarked) [OZ34] | 42 ng/mL (≈ 101 nM) | 60 ng/mL (≈ 144 nM) | 0/NA/0% | 0/NA/0% | 5.3 days | 5.7 days | 
O=C1c2ccccc2C(=O)N1N=C1CCC2(CC1)OOC1(O2)C2CC3CC(C2)CC1C3 (centres unmarked) [OZ38] | 0.86 ng/mL (≈ 2.04 nM) | 1.3 ng/mL (≈ 3.08 nM) | 83% | 99.98% | 6.7 days | 25.3 days | Activity (%) SSVpo [3]: 15%; Survival (days) SSVpo [3]: 5.0 days
Cc1ccc(S(=O)(=O)NN=C2CCC3(CC2)OOC2(O3)C3CC4CC(C3)CC2C4)cc1 (centres unmarked) [OZ39] | 1.4 ng/mL (≈ 3.14 nM) | 1.8 ng/mL (≈ 4.03 nM) | 61% | 99.3% | 6.3 days | 7.7 days | 
CC(C)C1CCC2(CC1)OOC1(O2)C2CC3CC(C2)CC1C3 (centres unmarked) [OZ40] | 1.4 ng/mL (≈ 4.57 nM) | 2.0 ng/mL (≈ 6.53 nM) | 99% | 99.8% | 7.3 days | 9.0 days | 
Fc1ccc(C2CCC3(CC2)OOC2(O3)C3CC4CC(C3)CC2C4)cc1 (centres unmarked) [OZ41] | 3.5 ng/mL (≈ 9.76 nM) | 4.6 ng/mL (≈ 12.8 nM) | 99.98% | 99.5% | 12.1 days | 10.7 days | Activity (%) SSVpo [3]: 81%; Survival (days) SSVpo [3]: 6.8 days
O=C(Cn1ccnc1)N1CCC2(CC1)OOC1(O2)C2CC3CC(C2)CC1C3 (centres unmarked) [OZ103] |  | 0.17 ng/mL (≈ 0.455 nM) | 86% | 87% | 7.3 days | 7.3 days | Activity (%) SSVpo [3]: 63%; Survival (days) SSVpo [3]: 6.7 days
C1CCC(NC2CCC3(CC2)OOC2(O3)C3CC4CC(C3)CC2C4)CC1 (centres unmarked) [OZ162] | 0.50 ng/mL (≈ 1.38 nM) | 0.71 ng/mL (≈ 1.96 nM) |  |  |  |  | 
CC(C)N(C(=O)N1CCC2(CC1)OOC1(O2)C2CC3CC(C2)CC1C3)C(C)C (centres unmarked) [OZ194] |  | 6.6 ng/mL (≈ 16.8 nM) | 87% | 99.95% | 8.3 days | 20.3 days | Activity (%) SSVpo [3]: 73%; Survival (days) SSVpo [3]: 8.0 days
CC(C)(C)CC(=O)N[C@H]1CC[C@]2(CC1)OOC1(O2)C2CC3CC(C2)CC1C3 (some centres unmarked) [OZ195] | 2.2 ng/mL (≈ 5.83 nM) | 3.7 ng/mL (≈ 9.8 nM) |  |  |  |  | 
O=C1CCC(=O)N1C[C@H]1CC[C@]2(CC1)OOC1(O2)C2CC3CC(C2)CC1C3 (some centres unmarked) [OZ197] | 1.0 ng/mL (≈ 2.66 nM) | 2.0 ng/mL (≈ 5.33 nM) |  |  |  |  | 
NCC[C@H]1CC[C@]2(CC1)OOC1(O2)C2CC3CC(C2)CC1C3 (some centres unmarked) [OZ229] | 0.24 ng/mL (≈ 0.781 nM) | 0.23 ng/mL (≈ 0.748 nM) |  |  |  |  | 
OC1(Cc2nc3ccccc3s2)CCC2(CC1)OOC1(O2)C2CC3CC(C2)CC1C3 (centres unmarked) [OZ276] |  | 0.94 ng/mL (≈ 2.2 nM) |  |  |  |  | Activity (%) 10 mg/kg SSV po [3]: 17/ND %; Survival (days) 10 mg/kg SSV po [3]: 7.3/ND days
CCOC(=O)NC[C@H]1CC[C@]2(CC1)OO[C@]1(O2)C2CC3CC(C2)CC1C3 [OZ289] |  | 0.56 ng/mL (≈ 1.53 nM) |  |  |  |  | Activity (%) 3 mg/kg SSV po ([3]; single 3 mg/kg po in SSV): 92%
O=c1ccn(C[C@H]2CC[C@]3(CC2)OO[C@]2(O3)C3CC4CC(C3)CC2C4)cc1 [OZ302] |  | 2.9 ng/mL (≈ 7.81 nM) |  |  |  |  | Activity (%) 3 mg/kg SSV po ([3]; single 3 mg/kg po in SSV): 88%; Activity (%) 10 mg/kg SSV po [3]: 99.60%
NC(=O)[C@@H]1CCCN1C[C@H]1CC[C@]2(CC1)OO[C@]1(O2)C2CC3CC(C2)CC1C3 [OZ327] | 0.85 ng/mL (≈ 2.18 nM) |  |  |  |  |  | Activity (%) 3 mg/kg SSV po ([3]; single 3 mg/kg po in SSV): 72%; Activity (%) 10 mg/kg SSV po [3]: 97%; Survival (days) 10 mg/kg SSV po [3]: 9.8 days
Nc1nccnc1C(=O)NC[C@H]1CC[C@]2(CC1)OO[C@]1(O2)C2CC3CC(C2)CC1C3 [OZ330] | 0.55 ng/mL (≈ 1.33 nM) |  |  |  |  |  | Activity (%) 3 mg/kg SSV po ([3]; single 3 mg/kg po in SSV): 82%; Activity (%) 10 mg/kg SSV po [3]: 99.96%
C[C@H](N)C(=O)NC[C@H]1CC[C@]2(CC1)OO[C@]1(O2)C2CC3CC(C2)CC1C3 [OZ335] |  | 0.28 ng/mL (≈ 0.768 nM) |  |  |  |  | Activity (%) 3 mg/kg SSV po ([3]; single 3 mg/kg po in SSV): 97%; Activity (%) 10 mg/kg SSV po [3]: 99.95%; Survival (days) 10 mg/kg SSV po [3]: 9.2 days
O=C([C@H]1CC[C@@]2(CC1)OO[C@@]1(O2)C2CC3CC(C2)CC1C3)N1CCNCC1 [OZ365] | 0.79 ng/mL (≈ 2.1 nM) |  |  |  |  |  | Activity (%) 3 mg/kg SSV po ([3]; single 3 mg/kg po in SSV): 92%; Activity (%) 10 mg/kg SSV po [3]: 99.57%; Survival (days) 3 mg/kg SSV po ([3]; single 3 mg/kg po in SSV): 8.0/8.0 days; Survival (days) 10 mg/kg SSV po [3]: 8.0/8.0 days
